Entries after “also recorded” stand apart in the source; their conditions may differ. Counter-ions that a name gives are not always drawn.
What was measured:
[1] = spectral properties of free dyes (absorbance, fluorescence emission, ε, Φ, intrinsic brightness); type: physicochemical; settings: 10 mM HEPES pH 7.3; for extinction coefficient (ε) compared to nondeuterated parent / fluorescence quantum yield (Φ) compared to nondeuterated parent / intrinsic brightness (ε×Φ): free dye; for intrinsic brightness (ε×Φ): in vitro
[2] = photobleaching of free dyes in vitro; type: physicochemical; settings: for photobleaching / in vitro photostability compared to nondeuterated parent: free dye, 10 mM HEPES pH 7.3; for blue-shift of fluorescence emission during photobleaching due to dealkylation: spectra taken periodically during photobleaching; for chromostability during bleaching: compared to nondeuterated compounds 15 and 17
[3] = relative singlet oxygen quantum yield of free dyes; type: physicochemical; settings: free dye
HaloTag protein [4] = experiment: fluorescence quantum yield of HaloTag-bound ligands in vitro; type: physicochemical; settings: attached to HaloTag protein
Protocol: These dyes were then tested as protein conjugates in vitro and in living cells. […] Both J ligands could label HaloTag-histone H2B fusions in living cells (FIG. 24, FIG. 25).

HaloTag protein [5] = experiment: relative singlet oxygen quantum yield of HaloTag-bound ligands; type: physicochemical
histone H2B-HaloTag = experiment: fluorescence lifetime in live cells measured using FLIM; type: cell-based; settings: histone H2B-HaloTag-bound
[6] = system: histone H2B-HaloTag fusion; experiment: labeling of cells expressing histone H2B-HaloTag fusion and imaging; type: cell-based, mammalian cell; settings: 10 pM, 30 min, washed 30 minutes
Sox2-HaloTag fusions = experiment: live-cell single-particle tracking of HaloTag ligands; type: cell-based; settings: HaloTag conjugates; for brightness in cells (photons/s): equivalent imaging conditions
[7] = deuterated vs nondeuterated TMR

## [2H]C([2H])([2H])N(c1ccc2c(-c3ccccc3C(=O)[O-])c3ccc(=[N+](C([2H])([2H])[2H])C([2H])([2H])[2H])cc-3oc2c1)C([2H])([2H])[2H] [Compound 14, 2-(3,6-Bis(bis(methyl-d3)amino)xanthylium-9-yl)benzoate]
[1]
  absorption and emission maxima / spectral shape compared to nondeuterated parent: remarkably similar
[1]; [7]
  increase in extinction coefficient at λmax (ε) compared to 1: ~20%
  increase in fluorescence quantum yield (Φ) compared to 1: ~20%
[2]
  photobleaching / in vitro photostability compared to nondeuterated parent: slower rate of photobleaching

## O=C1OC2(c3ccc(N4CCC4)cc3Oc3cc(N4CCC4)ccc32)c2ccccc21 [Compound 15, reference compound]
[2]
  blue-shift of fluorescence emission during photobleaching due to dealkylation: 9 nm

## [2H]C1([2H])N(c2ccc3c(-c4ccccc4C(=O)[O-])c4ccc(=[N+]5C([2H])([2H])C([2H])([2H])C5([2H])[2H])cc-4oc3c2)C([2H])([2H])C1([2H])[2H] [Compound 16, 2-(3,6-Bis(azetidin-1-yl-d6)xanthylium-9-yl)benzoate]
[1]
  extinction coefficient (ε) compared to nondeuterated parent: no improvement
  fluorescence quantum yield (Φ) compared to nondeuterated parent: no improvement
[2]
  photobleaching / in vitro photostability compared to nondeuterated parent: no improvement
  blue-shift of fluorescence emission during photobleaching due to dealkylation: 4 nm
[3]
  singlet oxygen (1O2) quantum yield compared to nondeuterated parent: significantly lower

## [2H]C1([2H])N(c2ccc3c(-c4ccccc4C(=O)[O-])c4ccc(=[N+]5C([2H])([2H])C([2H])([2H])C([2H])([2H])C5([2H])[2H])cc-4oc3c2)C([2H])([2H])C([2H])([2H])C1([2H])[2H] [Compound 18, 2-(3,6-Bis(pyrrolidin-1-yl-d8)xanthylium-9-yl)benzoate]
[1]
  absorption and emission maxima / spectral shape compared to nondeuterated parent: no change in spectral shape
  intrinsic brightness (ε×Φ): equivalent brightness
  extinction coefficient (ε) compared to nondeuterated parent: increases
  fluorescence quantum yield (Φ) compared to nondeuterated parent: increases
[2]
  chromostability during bleaching: higher
  photobleaching / in vitro photostability compared to nondeuterated parent: improved in vitro photostability

## [2H]C1([2H])N(c2ccc3c(-c4ccccc4C(=O)[O-])c4ccc(=[N+]5C([2H])([2H])C([2H])([2H])C([2H])([2H])C([2H])([2H])C5([2H])[2H])cc-4oc3c2)C([2H])([2H])C([2H])([2H])C([2H])([2H])C1([2H])[2H] [Compound 20, 2-(3,6-Bis(piperidin-1-yl-d10)xanthylium-9-yl)benzoate]
[1]
  absorption and emission maxima / spectral shape compared to nondeuterated parent: no change in spectral shape
  extinction coefficient (ε) compared to nondeuterated parent: increases
  fluorescence quantum yield (Φ) compared to nondeuterated parent: increases
[2]
  chromostability during bleaching: higher

## [2H]C1([2H])OC([2H])([2H])C([2H])([2H])N(c2ccc3c(-c4ccccc4C(=O)[O-])c4ccc(=[N+]5C([2H])([2H])C([2H])([2H])OC([2H])([2H])C5([2H])[2H])cc-4oc3c2)C1([2H])[2H] [Compound 22, 2-(3,6-Bis(morpholino-d8)xanthylium-9-yl)benzoate]
[1]
  absorption and emission maxima / spectral shape compared to nondeuterated parent: no change in spectral shape
  extinction coefficient (ε) compared to nondeuterated parent: increases
  fluorescence quantum yield (Φ) compared to nondeuterated parent: increases

## [2H]C1([2H])N(c2ccc3c(-c4cc(C(=O)NCCOCCOCCCCCCCl)ccc4C(=O)[O-])c4ccc(=[N+]5C([2H])([2H])C([2H])([2H])C5([2H])[2H])cc-4oc3c2)C([2H])([2H])C1([2H])[2H] [Compound 24, 2-(3,6-Bis(azetidin-1-yl-d6)xanthylium-9-yl)-4-((2-(2-((6-chlorohexyl)oxy)ethoxy)ethyl)carbamoyl)benzoate]
HaloTag protein [4]
  fluorescence quantum yield of HaloTag conjugate compared to nondeuterated ligand: higher
HaloTag protein [5]
  1O2 generation of HaloTag-bound ligand compared to nondeuterated ligand: significantly suppressed
Histone H2B-HaloTag
  fluorescence lifetime (τ) of HaloTag conjugate in cells compared to nondeuterated ligand: longer
[6]
  labeling of HaloTag-histone H2B fusions in living cells: could label
Sox2-HaloTag fusions
  photostability in cells (average track length of individual molecules): no improvement
  brightness in cells (photons/s): higher brightness

## [2H]C1([2H])N(c2ccc3c(-c4cc(C(=O)NCCOCCOCCCCCCCl)ccc4C(=O)[O-])c4ccc(=[N+]5C([2H])([2H])C([2H])([2H])C([2H])([2H])C5([2H])[2H])cc-4oc3c2)C([2H])([2H])C([2H])([2H])C1([2H])[2H] [Compound 25, 2-(3,6-Bis(pyrrolidin-1-yl-d8)xanthylium-9-yl)-4-((2-(2-((6-chlorohexyl)oxy)ethoxy)ethyl)carbamoyl)benzoate]
[6]
  labeling of HaloTag-histone H2B fusions in living cells: excellent live-cell label
Sox2-HaloTag fusions
  photostability in cells (average track length of individual molecules): significantly longer tracks
  brightness in cells (photons/s): higher brightness

## [2H]C1([2H])N(c2ccc3c(c2)C(C)(C)C2=CC(=[N+]4C([2H])([2H])C([2H])([2H])C4([2H])[2H])C=CC2=C3c2ccccc2C(=O)[O-])C([2H])([2H])C1([2H])[2H] [Compound 27, 2-(3,6-Bis(azetidin-1-yl-d6)-10,10-dimethylanthracen-9-ylium-9(10H)-yl)benzoate]
[1]
  extinction coefficient (ε) compared to nondeuterated parent: substantial increases
  fluorescence quantum yield (Φ) compared to nondeuterated parent: substantial increases

## [2H]C1([2H])N(c2ccc3c(c2)C(C)(C)C2=CC(=[N+]4C([2H])([2H])C([2H])([2H])C([2H])([2H])C4([2H])[2H])C=CC2=C3c2ccccc2C(=O)[O-])C([2H])([2H])C([2H])([2H])C1([2H])[2H] [Compound 29, 2-(10,10-Dimethyl-3,6-bis(pyrrolidin-1-yl-d8)anthracen-9-ylium-9(10H)-yl)benzoate]
[1]
  extinction coefficient (ε) compared to nondeuterated parent: substantial increases
  fluorescence quantum yield (Φ) compared to nondeuterated parent: substantial increases

## [2H]C1([2H])N(c2ccc3c(c2)[Si](C)(C)C2=CC(=[N+]4C([2H])([2H])C([2H])([2H])C4([2H])[2H])C=CC2=C3c2ccccc2C(=O)[O-])C([2H])([2H])C1([2H])[2H] [Compound 31, 2-(3,7-Bis(azetidin-1-yl-d6)-5,5-dimethyldibenzo[b,e]silin-10-ylium-10(5B)-yl)benzoate]
[1]
  intrinsic brightness (ε×Φ): increase
  extinction coefficient (ε) compared to nondeuterated parent: modestly increased
  fluorescence quantum yield (Φ) compared to nondeuterated parent: did not elicit a large increase

## [2H]C1([2H])N(c2ccc3c(c2)[Si](C)(C)C2=CC(=[N+]4C([2H])([2H])C([2H])([2H])C([2H])([2H])C4([2H])[2H])C=CC2=C3c2ccccc2C(=O)[O-])C([2H])([2H])C([2H])([2H])C1([2H])[2H] [Compound 33, 2-(5,5-Dimethyl-3,7-bis(pyrrolidin-1-yl-d8)dibenzo[b,e]silin-10-ylium-10(5H)-yl)benzoate]
[1]
  extinction coefficient (ε) compared to nondeuterated parent: substantial increase
  fluorescence quantum yield (Φ) compared to nondeuterated parent: substantial increase

## [2H]C1([2H])N(c2ccc3c(c2)[Si](C)(C)C2=CC(=[N+]4C([2H])([2H])C([2H])([2H])C4([2H])[2H])C=CC2=C3c2cc(C(=O)NCCOCCOCCCCCCCl)ccc2C(=O)[O-])C([2H])([2H])C1([2H])[2H] [Compound 37, 2-(3,7-Bis(azetidin-1-yl-d6)-5,5-dimethyldibenzo[b,e]silin-10-ylium-10(51)-yl)-4-((2-(2-((6-chlorohexyl)oxy)ethoxy)ethyl)carbamoyl)benzoate]
HaloTag protein [4]
  fluorescence quantum yield of HaloTag conjugate compared to nondeuterated ligand: substantial increase
HaloTag protein [5]
  1O2 generation of HaloTag-bound ligand compared to nondeuterated ligand: lower
Histone H2B-HaloTag
  fluorescence lifetime (τ) of HaloTag conjugate in cells compared to nondeuterated ligand: increased
[6]
  labeling of HaloTag-histone H2B fusions in living cells: suitable labels
Sox2-HaloTag fusions
  photostability in cells (average track length of individual molecules): more photostable
  brightness in cells (photons/s): higher brightness

## [2H]C1([2H])N(c2ccc3c(c2)[Si](C)(C)C2=CC(=[N+]4C([2H])([2H])C([2H])([2H])C([2H])([2H])C4([2H])[2H])C=CC2=C3c2cc(C(=O)NCCOCCOCCCCCCCl)ccc2C(=O)[O-])C([2H])([2H])C([2H])([2H])C1([2H])[2H] [Compound 38, 4-((2-(2-((6-Chlorohexyl)oxy)ethoxy)ethyl)carbamoyl)-2-(5,5-dimethyl-3,7-bis(pyrrolidin-1-yl-d8)dibenzo[b,e]silin-10-ylium-10(5H)-yl)benzoate]
[6]
  labeling of HaloTag-histone H2B fusions in living cells: improved cellular labeling
Sox2-HaloTag fusions
  photostability in cells (average track length of individual molecules): more photostable; also recorded: longest average single-molecule track length
  brightness in cells (photons/s): highest photons/s

## [2H]C1([2H])N(c2ccc3c(C)cc(=O)oc3c2)C([2H])([2H])C1([2H])[2H] [Compound 40, 7-(Azetidin-1-yl-d6)-4-methyl-2H-chromen-2-one]
[1]
  extinction coefficient (ε) compared to nondeuterated parent: similar
  fluorescence quantum yield (Φ) compared to nondeuterated parent: small decrease

## [2H]C1([2H])N(c2ccc3c(C)cc(=O)oc3c2)C([2H])([2H])C([2H])([2H])C1([2H])[2H] [Compound 42, 4-Methyl-7-(pyrrolidin-1-yl-d8)-2H-chromen-2-one]
[1]
  extinction coefficient (ε) compared to nondeuterated parent: equivalent
  fluorescence quantum yield (Φ) compared to nondeuterated parent: significantly higher

## [2H]C1([2H])N(c2ccc3nc4ccc(=[N+]5C([2H])([2H])C([2H])([2H])C([2H])([2H])C5([2H])[2H])cc-4oc3c2)C([2H])([2H])C([2H])([2H])C1([2H])[2H] [Compound 44, 3,7-Bis(pyrrolidin-1-yl-d8)phenoxazin-5-ium trifluoroacetate]
[1]
  fluorescence quantum yield (Φ) compared to nondeuterated parent: substantial increase

Reference: patent publication US12552938B2, “Deuterated fluorophores” (HOWARD HUGHES MEDICAL INSTITUTE, priority 2018, dated 2026)
